In patent US20260285850A1, “SUBSTITUTED OXAZOLIDINONES AND IMIDAZOLINONES AS HERBICIDES” (FMC CORPORATION, priority 2023, published 2026):

Key:
Assay type in all cases: in vivo
rice (Oryza sativa) = assay: Test B flooded paddy test, visual plant response rating 0-100; conditions: 250 g ai/ha, Flood, applied to paddy water, evaluated after 13 days
Procedure, shortened: (§1)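 Compounds applied to standing paddy water (3 cm above soil, maintained for the test duration) on 2-leaf-stage plants; visual rating vs controls at 13 days, greenhouse.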

[1] = tested on: sedge, umbrella (small-flower umbrella sedge, Cyperus difformis); assay: as above; conditions: 250 g ai/ha, Flood, applied to paddy water, evaluated after 13 days
Procedure, shortened: as §1

[2] = tested on: barnyardgrass (Echinochloa crusgalli); assay: as above; conditions: 250 g ai/ha, Flood, applied to paddy water, evaluated after 13 days
Procedure, shortened: as §1

[3] = tested on: ducksalad (Heteranthera limosa); assay: as above; conditions: 250 g ai/ha, Flood, applied to paddy water, evaluated after 13 days
Procedure, shortened: as §1

[4] = tested on: barnyardgrass (Echinochloa crus-galli); assay: Test A preemergence soil spray, visual injury rating 0-100; conditions: 10 days
Procedure, shortened: (§2)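 Compound in a non-phytotoxic, surfactant-containing solvent is applied either as a directed soil spray before seedlings emerge or onto emerged plants 2-10 cm tall; pots hold a loam-sand blend. Plants grow 10 days under greenhouse conditions and are rated by eye against untreated controls (0 no effect, 100 complete control).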

kochia (Bassia scoparia) [5] = assay: as above; conditions: 10 days
Procedure, shortened: as §2

[6] = tested on: ryegrass, Italian (italian ryegrass, Lolium multiflorum); assay: as above; conditions: 10 days
Procedure, shortened: as §2

soybean (Glycine max) [7] = assay: as above; conditions: 10 days
Procedure, shortened: as §2

[8] = tested on: wheat (Triticum aestivum); assay: as above; conditions: 10 days
Procedure, shortened: as §2

[9] = tested on: blackgrass (Alopecurus myosuroides); assay: as above; conditions: 10 days
Procedure, shortened: as §2

[10] = tested on: palmer (palmer amaranth, palmer pigweed, Amaranthus palmeri); assay: as above; conditions: 10 days
Procedure, shortened: as §2

[11] = tested on: green foxtail (Setaria viridis); assay: as above; conditions: 10 days
Procedure, shortened: as §2

[12] = tested on: oat, wild (wild oat, Avena fatua); assay: as above; conditions: 10 days
Procedure, shortened: as §2

[13] = tested on: ragweed (common ragweed, Ambrosia artemisiifolia); assay: as above; conditions: 10 days
Procedure, shortened: as §2

corn (Zea mays) [14] = assay: as above; conditions: 10 days
Procedure, shortened: as §2

[15] = tested on: barnyardgrass (Echinochloa crus-galli); assay: Test A postemergence application, visual injury rating 0-100
Procedure, shortened: as §2

kochia (Bassia scoparia) [16] = assay: as above
Procedure, shortened: as §2

[17] = tested on: ryegrass, Italian (italian ryegrass, Lolium multiflorum); assay: as above
Procedure, shortened: as §2

[18] = tested on: horseweed (Erigeron canadensis); assay: as above
Procedure, shortened: as §2

soybean (Glycine max) [19] = assay: as above
Procedure, shortened: as §2

[20] = tested on: wheat (Triticum aestivum); assay: as above
Procedure, shortened: as §2

[21] = tested on: blackgrass (Alopecurus myosuroides); assay: as above
Procedure, shortened: as §2

[22] = tested on: palmer (palmer amaranth, palmer pigweed, Amaranthus palmeri); assay: as above
Procedure, shortened: as §2

[23] = tested on: green foxtail (Setaria viridis); assay: as above
Procedure, shortened: as §2

[24] = tested on: oat, wild (wild oat, Avena fatua); assay: as above
Procedure, shortened: as §2

[25] = tested on: ragweed (common ragweed, Ambrosia artemisiifolia); assay: as above
Procedure, shortened: as §2

[26] = tested on: galium (catchweed bedstraw, Galium aparine); assay: as above
Procedure, shortened: as §2

corn (Zea mays) [27] = assay: as above
Procedure, shortened: as §2

[28] = 62 g ai/ha, 0 = no effect, 100 = complete control
[29] = 62 g ai/ha, postemergence, 10 days, 0 = no effect, 100 = complete control
[30] = Postemergence, 16 g ai/ha, greenhouse 10 days, 0 no effect, 100 complete control

Compound: C=CC1(C(=O)NC2C=CC(C(=O)OC)C2)CN(c2cc(F)cc(F)c2)C(=O)O1 (single isomer, unassigned) [Compound 168]
- Plant response rating, Rice (0 to 100 scale, 0 is no effect and 100 is complete control) (rice (Oryza sativa)): 0
- Plant response rating, Sedge, Umbrella (0 to 100 scale, 0 is no effect and 100 is complete control) [1]: 0
- Plant response rating, Barnyardgrass (0 to 100 scale, 0 is no effect and 100 is complete control) [2]: 0
- Plant response rating, Ducksalad (0 to 100 scale, 0 is no effect and 100 is complete control) [3]: 0
- Barnyardgrass plant response rating ([4]; 16 g ai/ha, 0 to 100 scale): 0
- Barnyardgrass plant response rating (0-100) [4, 28]: 0
- Kochia plant response rating (kochia (Bassia scoparia) [5]; 16 g ai/ha, 0 to 100 scale): 0
- Kochia plant response rating (0-100) (kochia (Bassia scoparia) [5]; [28]): 0
- Ryegrass, Italian plant response rating ([6]; 16 g ai/ha, 0 to 100 scale): 0
- Ryegrass, Italian plant response rating (0-100) [6, 28]: 0
- Soybean plant response rating (soybean (Glycine max) [7]; 16 g ai/ha, 0 to 100 scale): 0
- Soybean plant response rating (0-100) (soybean (Glycine max) [7]; [28]): 0
- Wheat plant response rating ([8]; 16 g ai/ha, 0 to 100 scale): 0
- Wheat plant response rating (0-100) [8, 28]: 0
- Blackgrass plant response rating ([9]; 16 g ai/ha, 0 to 100 scale): 0
- Blackgrass plant response rating (0-100) [9, 28]: 0
- Pigweed, Palmer plant response rating ([10]; 16 g ai/ha, 0 to 100 scale): 0
- Pigweed, Palmer plant response rating (0-100) [10, 28]: 0
- Foxtail, Green plant response rating ([11]; 16 g ai/ha, 0 to 100 scale): 0
- Foxtail, Green plant response rating (0-100) [11, 28]: 0
- Oat, Wild plant response rating ([12]; 16 g ai/ha, 0 to 100 scale): 0
- Oat, Wild plant response rating (0-100) [12, 28]: 0
- Ragweed plant response rating ([13]; 16 g ai/ha, 0 to 100 scale): 0
- Ragweed plant response rating (0-100) [13, 28]: 0
- Corn plant response rating (corn (Zea mays) [14]; 16 g ai/ha, 0 to 100 scale): 0
- Corn plant response rating (0-100) (corn (Zea mays) [14]; [28]): 0
- Barnyardgrass plant response rating (0-100) [15, 29]: 20
- Barnyardgrass plant response rating (0 to 100 scale) [15, 30]: 10
- Kochia plant response rating (0-100) (kochia (Bassia scoparia) [16]; [29]): 0
- Kochia plant response rating (0 to 100 scale) (kochia (Bassia scoparia) [16]; [30]): 0
- Ryegrass, Italian plant response rating (0-100) [17, 29]: 0
- Ryegrass, Italian plant response rating (0 to 100 scale) [17, 30]: 0
- Horseweed plant response rating (0-100) [18, 29]: 0
- Horseweed plant response rating (0 to 100 scale) [18, 30]: 0
- Soybean plant response rating (0-100) (soybean (Glycine max) [19]; [29]): 0
- Soybean plant response rating (0 to 100 scale) (soybean (Glycine max) [19]; [30]): 0
- Wheat plant response rating (0-100) [20, 29]: 0
- Wheat plant response rating (0 to 100 scale) [20, 30]: 0
- Blackgrass plant response rating (0-100) [21, 29]: 0
- Blackgrass plant response rating (0 to 100 scale) [21, 30]: 0
- Pigweed, Palmer plant response rating (0-100) [22, 29]: 0
- Pigweed, Palmer plant response rating (0 to 100 scale) [22, 30]: 0
- Foxtail, Green plant response rating (0-100) [23, 29]: 0
- Foxtail, Green plant response rating (0 to 100 scale) [23, 30]: 0
- Oat, Wild plant response rating (0-100) [24, 29]: 0
- Oat, Wild plant response rating (0 to 100 scale) [24, 30]: 0
- Ragweed plant response rating (0-100) [25, 29]: 0
- Ragweed plant response rating (0 to 100 scale) [25, 30]: 0
- Galium plant response rating (0-100) [26, 29]: 0
- Galium plant response rating (0 to 100 scale) [26, 30]: 0
- Corn plant response rating (0-100) (corn (Zea mays) [27]; [29]): 10
- Corn plant response rating (0 to 100 scale) (corn (Zea mays) [27]; [30]): 0
